Data from US5468730A, “Methods for the treatment of non-IgE-mediated diseases” (Dura Pharmaceuticals, Inc., priority 1992, dated 1995).
Where “and” joins values, the source holds several entries; their conditions need not be identical. Equal values may be shown once. No end group written: not given here.

Experiments:
[1] = test system: Tetanus toxoid-induced DTH reactions; design: species or system female Balb/C mice; conditions: mouse, in vivo
[2] = test system: carrageenan-induced inflammation; assay: Carrageenan-induced footpad edema in mice; assay type: in vivo, female Balb/C mice
Description: In order to examine the ability of pentigetide to inhibit carrageenan-induced inflammation, female Balb/C mice were injected with 0.025 ml of 1.0% carrageenan solution (type 1x carrageenan: Sigma No. C-1013, Lot No. 86F-0698) or saline in the right hind footpad 5 minutes after intravenous tail vein injection of 0.2 ml pentigetide (1.0 mg/kg) or saline solution.

[3] = test system: sheep erythrocyte (SRBC)-induced DTH reactions; assay: Sheep erythrocyte (SRBC)-induced DTH footpad swelling in mice; assay type: in vivo, female Balb/C mice; conditions: indomethacin 1.0 mg/kg on day 4 (positive control); footpad volume about 24 h after challenge
[4] = test system: immune complex-induced colitis; assay: Immune complex-mediated ulcerative colitis model (formalin + IgG immune complexes) in mice; assay type: in vivo, male BKA mice (outbred Swiss albino)
Description: A mouse model of intestinal inflammation was employed wherein the efficacy of pentigetide in reducing inflammation induced by formalin and complement-fixing IgG immune complexes was measured. This model is particularly useful as a model of human ulcerative colitis and shares many clinical and histological functions of the human disease including sensitivity to glucocorticoids, sulfasalazine and 5-aminosalicylic acid (see L. P. Walsh, et al., British J. Pharm. 91:294 (1987); A. Blackham, et al., British J. Pharm. 89:694 (1986); L. D. Walsh and I. J. Zeitlin, British J. Pharm. 92:741 (1987)). The mouse model of intestinal inflammation used in these studies is induced by the exposure of the animals to chemicals which are known to trigger inflammatory processes in both animals and humans. […]
Colonic tissue water content was determined by tissue weight loss on drying of colonic tissues. […]
The response to immune complex alone was determined quantitatively by subtracting the mean value in group B from the mean value in group C. An estimate of the percentage reduction in this response produced by the drug was calculated as: [formula] […] Statistical significance was determined using the non-parametric Mann-Whitney U-test. […]

[5] = test system: binding of IgE to lymphoblastoid tissue culture cells; conditions: two trials; reported in U.S. Pat. No. 4,161,522; cited from earlier work
[6] = test system: chronic idiopathic urticaria (non-IgE-mediated); conditions: human, in vivo

COc1ccc2c(c1)c(CC(=O)O)c(C)n2C(=O)c1ccc(Cl)cc1 [Indomethacin, indomethacin]
inhibition [1]: 45% | Percent Inhibition ([2]; 1.0 hours after carrageenan injection, indomethacin 10 mg/kg s.c. 24 hours prior to carrageenan): -35% | Percent Inhibition ([2]; 2.0 hours after carrageenan injection, indomethacin 10 mg/kg s.c.): -60% | Percent Inhibition ([2]; 4.0 hours after carrageenan injection, indomethacin 10 mg/kg s.c.): -39% | Percent Inhibition ([2]; 6.0 hours after carrageenan injection, indomethacin 10 mg/kg s.c.): -47% | inhibition [3]: 43%

C[C@]12C=CC(=O)C=C1CC[C@@H]1[C@@H]2[C@@H](O)C[C@@]2(C)[C@H]1CC[C@]2(O)C(=O)CO [prednisolone]
reduction of colonic edema ([4]; prednisolone 5.0 mg/kg i.p. for three days prior to inflammation induction and daily thereafter, p<0.01): 86.2% | reduction of colonic edema (printed in the colitic sign score paragraph) ([4]; prednisolone 5.0 mg/kg i.p., p<0.001): 93.8%

Asn-Ser-Asn-Pro-Arg (NSNPR; printed: Asn-Ser-Asn-Pro-Arg) [peptide reported in U.S. Pat. No. 4,161,522]
activity: ability to block binding of IgE to lymphoblastoid tissue culture cells [5]: lower activity

Asn-Ser-Asp-Pro-Arg (NSDPR; printed: Asn-Ser-Asp-Pro-Arg) [peptide reported in U.S. Pat. No. 4,161,522]
activity: ability to block binding of IgE to lymphoblastoid tissue culture cells [5]: lower activity

DSDPR [pentigetide, Asp-Ser-Asp-Pro-Arg]
side effects from the treatment [6]: did not experience any side effects

[-Cys-Ala-Asn-Ser-Asn-Pro-Arg]2
activity: ability to block binding of IgE to lymphoblastoid tissue culture cells [5]: 9% and 12%
